From the NIST ThermoML archive (doi:10.1016/j.jct.2017.07.040)
± gives the expanded uncertainty stated by the source.

Assay: mn = molality of the nth substance listed, in mol/kg
Settings: 101 kPa, Liquid; for viscosity: Capillary tube (Ostwald / Ubbelohde) method; for speed of sound: Frequency=6 MHz, Linear variable-path acoustic interferometer; for mass density: Vibrating tube method

N[C@@H](Cc1c[nH]cn1)C(=O)O [L-histidine] + O
Settings | mass density [kg/m3] | speed of sound [m/s] | viscosity [mPa·s]
293.15 K, m1 = 0.01 | 998.806 ± 1.1 | 1483.9 ± 2.5 | 1.009 ± 0.021
293.15 K, m1 = 0.03 | 999.974 ± 1.1 | 1485.7 ± 2.5 | 1.016 ± 0.021
293.15 K, m1 = 0.05 | 1001.14 ± 1.1 | 1487.5 ± 2.5 | 1.022 ± 0.021
293.15 K, m1 = 0.07 | 1002.32 ± 1.1 | 1489.3 ± 2.5 | 1.028 ± 0.021
293.15 K, m1 = 0.09 | 1003.5 ± 1.1 | 1491.1 ± 2.5 | 1.034 ± 0.021
293.15 K, m1 = 0.11 | 1004.68 ± 1.1 | 1492.8 ± 2.5 | 1.04 ± 0.021
298.15 K, m1 = 0.01 | 997.635 ± 1.1 | 1498.2 ± 2.5 | 0.8956 ± 0.021
298.15 K, m1 = 0.03 | 998.775 ± 1.1 | 1500 ± 2.5 | 0.9014 ± 0.021
298.15 K, m1 = 0.05 | 999.914 ± 1.1 | 1501.7 ± 2.5 | 0.9061 ± 0.021
298.15 K, m1 = 0.07 | 1001.05 ± 1.1 | 1503.2 ± 2.5 | 0.9107 ± 0.021
298.15 K, m1 = 0.09 | 1002.19 ± 1.1 | 1505 ± 2.5 | 0.9156 ± 0.021
298.15 K, m1 = 0.11 | 1003.33 ± 1.1 | 1506.9 ± 2.5 | 0.9197 ± 0.021
303.15 K, m1 = 0.01 | 996.232 ± 1.1 | 1510.3 ± 2.5 | 0.8015 ± 0.021
303.15 K, m1 = 0.03 | 997.346 ± 1.1 | 1512 ± 2.5 | 0.8061 ± 0.021
303.15 K, m1 = 0.05 | 998.458 ± 1.1 | 1513.7 ± 2.5 | 0.8103 ± 0.021
303.15 K, m1 = 0.07 | 999.567 ± 1.1 | 1515.4 ± 2.5 | 0.8143 ± 0.021
303.15 K, m1 = 0.09 | 1000.68 ± 1.1 | 1517 ± 2.5 | 0.8178 ± 0.021
303.15 K, m1 = 0.11 | 1001.79 ± 1 | 1518.7 ± 2.5 | 0.8217 ± 0.021
308.15 K, m1 = 0.01 | 994.608 ± 1.1 | 1521 ± 2.5 | 0.7223 ± 0.021
308.15 K, m1 = 0.03 | 995.696 ± 1.1 | 1522.7 ± 2.5 | 0.7259 ± 0.021
308.15 K, m1 = 0.05 | 996.785 ± 1.1 | 1524.3 ± 2.5 | 0.7292 ± 0.021
308.15 K, m1 = 0.07 | 997.874 ± 1.1 | 1525.9 ± 2.5 | 0.7323 ± 0.021
308.15 K, m1 = 0.09 | 998.961 ± 1.1 | 1527.5 ± 2.5 | 0.7356 ± 0.021
308.15 K, m1 = 0.11 | 1000.05 ± 1.1 | 1529.1 ± 2.5 | 0.7389 ± 0.021
313.15 K, m1 = 0.01 | 992.782 ± 1.1 | 1530.1 ± 2.5 | 0.6553 ± 0.02
313.15 K, m1 = 0.03 | 993.848 ± 1.1 | 1531.7 ± 2.5 | 0.6584 ± 0.02
313.15 K, m1 = 0.05 | 994.918 ± 1.1 | 1533.2 ± 2.5 | 0.6613 ± 0.02
313.15 K, m1 = 0.07 | 995.988 ± 1.1 | 1534.8 ± 2.5 | 0.6638 ± 0.02
313.15 K, m1 = 0.09 | 997.06 ± 1.1 | 1536.3 ± 2.5 | 0.6669 ± 0.02
313.15 K, m1 = 0.11 | 998.13 ± 1.1 | 1537.8 ± 2.5 | 0.6692 ± 0.02

O [water] + CC1(C)S[C@@H]2[C@H](NC(=O)[C@H](N)c3ccccc3)C(=O)N2[C@H]1C(=O)[O-].[Na+]
m2 = 0
Settings | mass density [kg/m3] | speed of sound [m/s] | viscosity [mPa·s]
293.15 K | – | – | 1.002 ± 0.021
298.15 K | – | – | 0.8903 ± 0.021
303.15 K | – | – | 0.7973 ± 0.021
308.15 K | 994.063 ± 1.3 | – | 0.719 ± 0.021
313.15 K | – | 1529.3 ± 2.5 | 0.6526 ± 0.02

O [water] + N[C@@H](Cc1c[nH]cn1)C(=O)O
m2 = 0
Settings | mass density [kg/m3] | speed of sound [m/s] | viscosity [mPa·s]
293.15 K | – | – | 1.002 ± 0.021
298.15 K | – | – | 0.8903 ± 0.021
303.15 K | – | – | 0.7973 ± 0.021
308.15 K | 994.063 ± 1.1 | – | 0.719 ± 0.021
313.15 K | – | 1529.3 ± 2.5 | 0.6526 ± 0.021
